{
  "source": "patent US5656600A",
  "about": "“α-ketoamide derivatives as inhibitors of thrombosis” (Corvas International, Inc., priority 1993, dated 1997)",
  "key": {"Rat Venous Stasis Model": {"tested_on": "Rat Venous Stasis Model", "assay": "Venous stasis in rats (thromboplastin plus stasis, inferior vena cava)", "format": "in vivo", "details": "for % Clot: mean ± S.E.M.", "method": "This is one of the most commonly used models in the evaluation of antithrombotic compounds. Hladovec, J. Thromb. […] Talbot, M. D., et. al., Thromb.\nMale Harlan Sprague Dawley rats (420-450 g) were acclimated at least 72 hours prior to use. The animals were fasted for 12 hours prior to surgery with free access to water. The animals were anesthetized with a sodium pentobarbital (Nembutal) given intraperitoneally at a dose of 50 mg/kg body weight and placed on a isothermal pad to maintain body temperature. The level of anesthesia was monitored every 15 minutes by: neuro-response to a tail pinch, respiration and body core temperature. The desired depth of surgical anesthesia was maintained by administering subsequent doses (5 mg/kg) intravenously. The left femoral artery was catheterized with polyethylene tubing (PE50) using standard procedures for blood pressure monitoring and blood sampling. The left and right femoral veins were catheterized with PE50 tubing for delivery of anesthetic and test compounds respectively.\nBlood pressure, heart rate, core temperature and respiration were monitored continuously.\nThe abdomen of the animals is opened by making a vertical midline incision followed by isolation of the IVC using dissection. The segment extends from below the renal to above the iliac vessels (about 2 cm in length). The peripheral blood vessels are tied off and a ligature is loosely placed at the distal and proximal ends of the isolated segment. Rabbit brain thromboplastin (RBT) (Sigma Chemical Co., St. Louis MO) is prepared by resuspending the contents of the vial with 2 mL of sterile saline pre-warmed to 37° C. At the end of the 30 minute infusion period, RBT is systemically administered as a bolus injection (1.5 mL/kg) via the femoral catheter. Stasis is induced within the isolated IVC segment by securing the proximal and distal ligature 10 sec following the administration of the RBT. Following a 30 minute period of stasis the tied off IVC segment is removed and the contents weighed. Clot formation was defined as %clot: [Weight of the isolated clot/(Weight of the intact segment-the weight of the empty segment)]×100. This method was used to correct for slight differences in segment size and fluid content.\nFollowing termination of the experiment the animal was euthanized with a 120 mg/kg dose of Nembutal."}, "α-thrombin [1]": {"biological_target": "T1, α-thrombin (Homo sapiens, UniProt P00734)", "assay": "Amidolytic thrombin assay (inhibition constant Ki)", "format": "biochemical", "method": "The ability of the compounds of the present invention to act as inhibitors of thrombin catalytic activity in comparison to Hirulog-1 (compound 25) was assessed by determining their inhibition constant, Ki.\nEnzyme activity was determined using the chromogenic substrate Pefachrome t-PA (CH3 SO2 -D-hexahydrotyrosine-glycyl-L-arginine-p-nitroaniline, obtained from Pentapharm Ltd.). The substrate was reconstituted in deionized water prior to use.\nKi values were determined for test compounds using the following methodologies:\nThe assay was conducted by combining in appropriate wells of a Corning microtiter plate, 50 μL of HBSA, 50 μL of the test compound at a specified concentration diluted in HBSA (or HBSA alone for Vo(uninhibited velocity) measurement), and 50 μL of the chromogenic substrate diluted in HBSA. At time zero, 50 μL of α-thrombin diluted in HBSA, was added to the wells yielding a final concentration of 0.25 nM in a total volume of 200 μL. Velocities of Pefachrome-tPA substrate hydrolysis which occurred over a 40 minute time period was measured by the change in absorbance at 405 nm using a Thermo Max® Kinetic Microplate Reader. […] The linear relationship between kobs and inhibitor concentration is indicative of a competitive, one step mechanism and was used to calculate kon and koff which yielded a value for Ki after taking into consideration the concentration and Km (38.5 μM) of the substrate in the assay.\nThe initial velocity of Pefachrome t-PA hydrolysis was measured by the change in absorbance at 405 nm using a Thermo Max® Kinetic Microplate Reader over a 2 minute period in which less than 5% of the added substrate was utilized. The relationship between the ratio of the inhibited steady-state velocity (Vs) and the uninhibited velocity (Vo) to the concentration of inhibitor [It ], was analyzed using Equation 1 developed by Morrison , J. F., Biochim. Biophys. Acta, 185:269 (1969) for inhibitors which deplete a significant amount of the total enzyme (Et) over the course of the assay (designated tight binding inhibitors):\nVs/Vo={([Et ]-[It ]-Ki*)+[([It ]+Ki*-[Et ])^2\nKi* was determined by fitting Vs/Vo verses [I] using Equation 1 by non-linear regression analysis.\nThe best fit of the data for both compounds was to the equation describing competitive inhibition."}, "thrombin": {"biological_target": "thrombin (Homo sapiens, UniProt P00734)", "details": "literature values; read-out: Ki (thrombin), reported; cited from earlier work"}, "[2]": {"tested_on": "pooled normal human plasma", "assay": "Ex vivo coagulation assay (APTT)", "details": "normal citrated human plasma; FIG. 3", "method": "Fresh frozen pooled normal human plasma was obtained from George King Biomedical, Overland Park, KA. Measurements APTT was made using the Coag-A-Mate RA4 automated coagulometer (General Diagnostics, Organon Technica, Oklahoma City, OK) using the Automated APTT reagent (Organon Technica, Durham, NC) as the initiator of clotting according to the manufacturers instructions. The assay was conducted by making a series of dilutions of the test compounds in rapidly thawed plasma followed by adding 200 μL to the wells of the assay carousel."}, "washed human platelets": {"tested_on": "washed human platelets", "assay": "Thrombin-induced aggregation in washed human platelets", "format": "cell-based", "method": "Washed human platelets were prepared from freshly isolated venous blood obtained from normal, healthy volunteers who had not taken any medication which might affect platelet function, according to the procedure of Connolly, T. M. et al., J. Biol. Chem., 267:6893 (1992). Inhibitors, were added in a volume of 20 μL to 350 μL of prewarmed washed platelets in a siliconized glass cuvette (Chronolog Corp., Havertown, PA) followed by 10 μL of 0.25 M CaCl2. The rate and extent of aggregation were measured for 5-15 minutes by the change in light transmission in a stirred cuvette, following the addition of 20 μL of […] (final concentration 2 nM), using a Chronolog Whole Blood Aggregometer equipped with the Aggro/Link data acquisition system (Chronolog Corp., Hayertown, PA). The extent of inhibition was determined by measuring the change in the amplitude (extent) of the aggregation response compared to the control (uninhibited) response over the 1 minute period following the addition of thrombin."}, "α-thrombin [3]": {"biological_target": "T1, α-thrombin", "assay": "Thrombin-induced clotting of purified fibrinogen", "format": "biochemical", "details": "preincubation with α-thrombin up to 60 minutes before fibrinogen", "method": "Inhibition is reflected as an increase in the relative clotting time which is the ratio of the […]. The control clotting time in this assay is 16.2±0.78 sec.\nThe clotting time of fibrinogen following the addition of the thrombin/inhibitor complex was measured optically using the Coag-A-Mate XC automated coagulometer (General Diagnostics, Organon Technica, Oklahoma City, OK). […] Haemostas., 69:130-134 (1993)."}},
  "data": [
    {"substance": "(D--Phe)--Pro--Arg--Pro--(Gly4 --Asn--Gly--Asp--Phe--Glu--Glu--IIe--Pro--Glu--Glu--Tyr--Leu--OH [Compound 25]", "values": [
      {"measurement": "% Clot", "setting": "Rat Venous Stasis Model; 0.1 mg/kg i.v. bolus + 40 μg/kg/min i.v. infusion", "value": "25.75 ± 3.71", "unit": "%"},
      {"measurement": "% Clot", "setting": "Rat Venous Stasis Model; 0.1 mg/kg i.v. bolus + 60 μg/kg/min i.v. infusion", "value": "26.50 ± 3.59", "unit": "%"},
      {"measurement": "% Clot", "setting": "Rat Venous Stasis Model; 0.1 mg/kg i.v. bolus + 80 μg/kg/min i.v. infusion", "value": "25.75 ± 0.41", "unit": "%"},
      {"measurement": "effect on venous thrombus formation induced by stasis and thromboplastin", "setting": "Rat Venous Stasis Model; summary in words", "value": "did not have any effect of thrombus formation"},
      {"measurement": "Ki", "setting": "α-thrombin [1]; chromogenic substrate Pefachrome t-PA, HBSA pH 7.5, slow-binding (kon/koff) or Dixon analysis", "value": 0.437, "unit": "nM"},
      {"measurement": "kinetics / mechanism of thrombin inhibition", "setting": "α-thrombin [1]; in words", "value": "rapid, reversible kinetics of inhibition"},
      {"measurement": "Ki", "setting": "thrombin", "value": 2.56, "unit": "nM"},
      {"measurement": "prolongation of activated partial thromboplastin time (APTT)", "setting": "[2]", "value": "prolonged the APTT in a dose dependent manner"},
      {"measurement": "persistence of inhibition of aggregation over the 15 minute course of the assay", "setting": "washed human platelets; 20nM (compound 8), same or higher concentrations (Hirulog-1), FIG. 4", "value": "did not cause sustained inhibition of the aggregation response"},
      {"measurement": "IC50", "setting": "washed human platelets; α-thrombin 2 nM, extent of aggregation over 1 minute after thrombin, mean ± standard deviation, three determinations", "value": "16 ± 3", "unit": "nM"},
      {"measurement": "proteolytic inactivation by thrombin upon prolonged incubation", "setting": "α-thrombin [3]", "value": "sensitive to proteolytic degradation with re-emergence of thrombin activity"}
    ]}
  ]
}
